We go through 2 compounds from patent publication EP2474542A1 (priority 2010, dated 2012).

Structures are written as SMILES. Where two headings read alike, the source gives them in different places.

Data set [1] can be described thus: logP determination (HPLC/MS characterisation, HCOOH). In kind it is physicochemical.
The test system of another data set is Phytophthora infestans. The class given is in vivo. The settings on record: preventive, young tomato plants sprayed, 100ppm of active ingredient, evaluated 7 days after the inoculation; 0% = untreated control, 100% = no disease.
Setting [2] is: HCOOH, HPLC/MS, read-out: logP(HCOOH).

Regarding `Cn1nnnc1/C(=N\OCc1csc(NC(=O)O/N=C/c2ccccc2)n1)c1ccccc1` [Example 1, ({4-[({[(Z)-(1-methyl-1H-tetrazol-5-yl)(phenyl)methylene]amino}oxy)methyl]-1,3-thiazol-2-yl}amino)({[(E)-phenylmethylene]amino}oxy)methanone], the chromatographic logP in data set [1] (setting [2]) amounted to 3.39; in data set [1] (Table 1, read-out: log P), 3.13. In the data set on Phytophthora infestans, this compound gave an Eff.% of 95%.
With `Cn1nnnc1/C(=N\OCc1csc(N=C=O)n1)c1ccccc1` [(Z)-N-[(2-isocyanato-1,3-thiazol-4-yl)methoxy]-1-(1-methyl-1H-tetrazol-5-yl)-1-phenylmethanimine], the chromatographic logP in data set [1] (setting [2]) was 3.13.
